Data: patent US20230278969A1, “CERTAIN (2S)-N-[(1S)-1-CYANO-2-PHENYLETHYL]-1,4-OXAZEPANE-2-CARBOXAMIDES AS DIPEPTIDYL PEPTIDASE 1 INHIBITORS” (AstraZeneca AB, priority 2014, published 2023)

Columns and labels:
[1] = molecular target: recombinant human (RH) DPP1 (Homo sapiens (Human), UniProt P53634); assay: Test A1: Fluorescence Assay for Recombinant Human (RH) DPP1; assay type: biochemical; conditions: Test A1 (Examples 1-35); rhDPP1 ~50 pM, 100 µM H-Gly-Arg-AMC, 22° C.
Method: Test A1: Fluorescence Assay for Recombinant Human (RH) DPP1
The activity of DPP1 was determined by measuring the enzymatic release of aminomethyl coumarin (AMC) from the peptide substrate (H-Gly-Arg-AMC), which leads to an increase in fluorescence intensity at λex =350 nm and λem =450 nm. The assay was carried out in black 384 well plates in a final volume of 50 µl at 22° C. The assay conditions contained the following: 25 mM piperazine buffer pH 5.0; 50 mM NaCl, 5 mM DTT; 0.01% (v/v) Triton X-100; 100 µMH-Gly-Arg-AMC and rhDPP1 (~50 pM). […] Routinely, inhibitors were pre-incubated with rhDPP1 for 30-60 min prior to the addition of the peptide substrate to start the reaction for a further 60 min at 22° C.

[2] = Test B: In-vitro Competitive Aortic Tissue Binding Assay; design: species or system Han Wistar rats; conditions: 100 µM compound, competition with [14C]-labelled WO2010/128324 Ex. 3, categories strong binder, medium binder, no binder
Method: To assist the design of DPP1 inhibitors with a decreased risk of binding to elastin rich tissues, such as the aorta, the in-vitro competitive aortic binding assay disclosed below (Test B) was developed to facilitate the selection process.
Test B: In-vitro Competitive Aortic Tissue Binding Assay
Aortic homogenate was prepared from the thoracic aortae of Han Wistar rats. Freshly isolated thoracic aortae were frozen, and later thawed and stripped of non-elastic material. […] Homogenate concentration was adjusted to 30 mg/mL in Puck’s saline, and aliquots were stored at -80° C. until use. Positive and negative control compounds and test compounds were made up to 100 mM in DMSO, and added to 1 mL aliquots of aortic homogenate in Puck’s saline for a final concentration of 100 µM. Homogenate samples were pre-incubated with test compounds at 37° C., rotating, overnight. [^14C]4-Amino-N-[(1S)-1-cyano-2-(4′-cyanobiphenyl-4-yl)ethyl]tetrahydro-2H-pyran-4-carboxamide was then added to all samples to a final concentration of 100 µM, and samples were incubated at 37° C., rotating, for a further 2 h. Protein was precipitated from each sample by the addition of 10 mL acetone, prechilled to -20° C. Samples were left overnight at -20° C. to allow complete precipitation. […] Precipitate was washed by resuspension in 10 mL 80% methanol in distilled water, and re-pelleted by centrifugation at 4,500 × g at 4° C. for 20 min. […] After final wash, precipitate was air-dried, and dissolved overnight in 1 mL NCSII Tissue Solubiliser. 1 mL aliquots of supernatants were added to 5 mL Ultima Gold scintillation fluid (Perkin Elmer, MA, U.S.A.), and 1 mL solubilised pellets were added to 5 mL Hionic-Fluor scintillation fluid (Perkin Elmer, MA, U.S.A.). Radioactivity of samples was determined on a Beckman LS6500 multipurpose scintillation counter (Beckman Coulter, IN, U.S.A.). […] Duplicate samples were tested for each compound on each experimental occasion, and at least two experiments were run for each test compound. […] 1-way ANOVA and Bonferroni’s multiple comparison tests were performed to calculate significance of differences from vehicle control.

[3] = rat quantitative whole-body autoradiography (QWBA) studies; assay type: in vivo
[4] = QWBA studies, literature (Schmidt et al. 1984); cited from earlier work

recombinant human (RH) DPP1, sequence (P53634 231-394): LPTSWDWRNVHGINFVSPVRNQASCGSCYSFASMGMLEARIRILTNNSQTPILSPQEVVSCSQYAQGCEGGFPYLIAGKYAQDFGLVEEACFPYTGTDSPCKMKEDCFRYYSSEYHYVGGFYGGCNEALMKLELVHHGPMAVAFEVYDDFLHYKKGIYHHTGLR
recombinant human (RH) DPP1, sequence (P53634 25-143): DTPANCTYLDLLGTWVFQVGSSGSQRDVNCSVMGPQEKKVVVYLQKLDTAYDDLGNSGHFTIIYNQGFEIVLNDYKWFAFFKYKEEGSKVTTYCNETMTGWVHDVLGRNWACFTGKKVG
recombinant human (RH) DPP1, sequence (P53634 395-463): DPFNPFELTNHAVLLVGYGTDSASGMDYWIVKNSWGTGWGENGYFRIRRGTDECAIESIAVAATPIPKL

**Q.** For `N#Cc1ccc(-c2ccc(C[C@@H](C#N)NC(=O)[C@@H]3CNCCCO3)cc2)cc1` [Example 1, (2S)-N-[(1S)-1-Cyano-2-(4′-cyanobiphenyl-4-yl)ethyl]-1,4-oxazepane-2-carboxamide], which “DPP1 activity, pIC50” value [1] is on record?
**A.** 7.45

**Q.** With `Cn1c(=O)oc2ccc(-c3ccc(C[C@@H](C#N)NC(=O)[C@@H]4CNCCCO4)cc3)cc21` [Example 2, (2S)-N-{(1S)-1-cyano-2-[4-(3-methyl-2-oxo-2,3-dihydro-1,3-benzoxazol-5-yl)phenyl]ethyl}-1,4-oxazepane-2-carboxamide] as the molecule, how does the “Aortic Tissue Binding” value [2] read?
**A.** No binder

**Q.** Which “DPP1 activity, pIC50” value [1] does the source give for `Cc1cc(-c2ccc(C[C@@H](C#N)NC(=O)[C@@H]3CNCCCO3)cc2)cc2c1oc(=O)n2C` [Example 3, (2S)-N-{(1S)-1-Cyano-2-[4-(3,7-dimethyl-2-oxo-2,3-dihydro-1,3-benzoxazol-5-yl)phenyl]ethyl}-1,4-oxazepane-2-carboxamide] here?
**A.** 7.99

**Q.** With `CS(=O)(=O)Oc1cccc(-c2ccc(C[C@@H](C#N)NC(=O)[C@@H]3CNCCCO3)cc2)c1` [Example 4, 4′-[(2S)-2-Cyano-2-{[(2S)-1,4-oxazepan-2-ylcarbonyl] Amino}ethyl] Biphenyl-3-yl methanesulfonate] as the molecule, how does the “DPP1 activity, pIC50” value [1] read?
**A.** 7.1

**Q.** With `N#Cc1ccc(-c2ccc(C[C@@H](C#N)NC(=O)[C@@H]3CCCCN3)cc2)cc1` [WO2009/074829 (Example 24)] as the molecule, how does the “Aortic Tissue Binding” value [2] read?
**A.** Binder

**Q.** Which “Aortic Tissue Binding” value [2] does the source give for `Cn1c(=O)oc2ccc(-c3ccc(C[C@@H](C#N)NC(=O)[C@@H]4CCCCN4)cc3)cc21` [WO2009/074829 (Example 96)] here?
**A.** Medium binder

**Q.** Which “Aortic Tissue Binding” value [2] does the source give for `N#Cc1ccc(-c2ccc(C[C@@H](C#N)NC(=O)C3(N)CCOCC3)cc2)cc1` [WO2010/128324 (Ex. 3), 4-amino-N-[(1S)-1-cyano-2-(4′-cyanobiphenyl-4-yl)ethyl]tetrahydro-2H-pyran-4-carboxamide] here?
**A.** Strong binder (reference)

**Q.** And the aortic retention [3]?
**A.** high level of aortic retention

**Q.** Which “Aortic Tissue Binding” value [2] does the source give for `Cn1c(=O)oc2ccc(-c3ccc(C[C@@H](C#N)NC(=O)C4(N)CCOCC4)cc3)cc21` [WO2010/128324 (Example 17)] here?
**A.** Strong binder

**Q.** For `CC(c1ccc(Cl)c(Cl)c1)N1N=C(N)CC1=O` (stereo not shown) [muzolimine], which “retention in the aorta” value [4] is on record?
**A.** retained selectively in the aorta
